The source of these data is US20220381772A1, “SYSTEMS AND METHODS FOR EVALUATING NK CELLS” (The Regents of The University of California, priority 2019, published 2022).

What all share (assay type): cell-based, human
Data set [1] has as its system NK-supernatant differentiated MP2 tumors. As to the kind of experiment: Paclitaxel-induced cell death, propidium iodide staining. As to conditions: for cell death: MP2 differentiated with NK-supernatants 5 days, paclitaxel 10 nM to 600 nM, 18-24 h. The procedure:
(§1) The viability of cells was determined by staining with propidium iodide (n=3/each experimental condition).

Data set [2] concerns MP2 tumors. The description is as above. As to conditions: for cell death: poorly differentiated MP2, 18-20 hours. On the procedure:
(§2) P-values of <0.05 were obtained for differences between MP2 vs. PL12 and Capan at the concentrations of 10 nM, 200 nM, 600 nM, 1000 nM and […] of Paclitaxel (n=2 per each experimental condition).
as §1

For a further data set, the system named is Capan tumors. Described as above. On the procedure:
as §2

The next data set deals with PL12 tumors. The description is as above. As to conditions: for cell death: well-differentiated PL12, compared with MP2, 18-20 hours. The procedure: as §2
The test system of another data set is OSCCs. Put plainly: Chemo-drug induced cell death, propidium iodide staining and flow cytometry. As to conditions: patient-derived differentiated OSCCs. The procedure:
(§3) OSCCs or OSCSCs were seeded at 1×10^5 cells/well in 24-well plate for 24 h prior to the addition of highly purified NK cells pre-treated with IL-2 (1000 units/ml) for 24 h. NK cells were added to tumor cells at 2:1 effector to target ratio. At time 0 when NK cells were added to the tumor culture, a final concentration of 10 μg/ml of propidium iodide (PI) was also added. The cells were then subsequently tracked for over 72 h using time-lapse microscopy with Nikon Eclipse Ti-E inverted microscope fitted with a culture chamber to provide cells with a stable temperature of 37° C. with 5% CO2. An image was taken every 15 min and a representation is shown at day 1, day 1½, and day 3. OSCSCs but not OSCCs which are lysed take up PI and appear orange in the time-lapse (A). NK cells were left untreated or treated with IL-2 (1000 units/ml), anti-CD16 mAb (3 μg/ml), or a combination of IL-2 (1000 units/ml) and anti-CD16 mAb (3 μg/ml) for 18 h before they were added to ^51Cr-labeled OSCSCs and OSCCs. NK cell-mediated cytotoxicity was determined using a standard 4 h ^51Cr release assay and the lytic units 30/10^6 cells were determined using inverse number of NK cells required to lyse 30% of the target cells×100 (B). NK cells were treated as described in (B) and each NK sample was either cultured in the absence or presence of OSCSCs and OSCCs at an NK cell to target cell ratio of 0.5:1. After an overnight incubation, the supernatants were removed from the co-cultures and the levels of IFN-γ secretion were determined using specific ELISAs. One of minimum three representative experiments is shown in each of (C). The surface expression of MHC class I and CD44 on OSCCs and OSCSCs were assessed with flow cytometric analysis after staining with the respective PE-conjugated antibodies. Isotype control antibodies were used as control. The numbers on the right hand corner are the percentages and the mean channel fluorescence intensities for each histogram (D). The surface expression of CD338 on OSCCs and OSCSCs was assessed by flow cytometric analysis after staining with PE-conjugated CD338 (right graphs in the histogram). Isotype control antibodies were used as control (left graphs in the histograms) (E). OSCCs and OSCSCs were left untreated or treated with 10-80 μg/ml of cisplatin for 18 h, after which the tumor cells were washed with 1×PBS, detached, and stained with propidium iodide (PI) and percent cell death was determined using flow cytometric analysis (F).

A further data set relates to OSCSCs. The data set is described as above. On the procedure: as §3
The test system of data set [3] is MP2 tumors. Put plainly: Surface expression of CD44, CD54, MHC-class I and B7H1, flow cytometry. As to conditions: rhIFN-γ 200 U/mL, 24 h. On the procedure:
(§4) Freshly isolated NK cells were left untreated or treated with IL-2 (1000 U/mL) or the combination of anti-CD16 mAb (3 μg/mL) and IL-2 (1000 U/mL) for 18 h before they were used in co-cultures with ^51Cr labeled MP2, and PL12. NK cell-mediated cytotoxicity was determined using 4-hour ^51Cr release assay, and the lytic units 30/10^6 cells were determined using inverse number of NK cells required to lyse 30% of the target cells×100 (n=5 independent experiments). (FIG. 25A). Cells were left untreated or treated with rhTNF-α (20 ng/mL), rhIFN-γ (200 U/mL) or the combination of rhTNF-α (20 ng/mL) and […] (200 U/mL) for 24 h. Afterwards, the cells were detached and the surface expression of CD44, CD54, MHC-class I and B7H1 were assessed using staining with PE conjugated antibodies followed by flow cytometric analysis. Isotype control antibodies were used as controls (FIG. 25B) MP2 and Capan cells were treated as described in FIG. 25A, and were detached from the tissue culture plates, labeled with ^51Cr and used in a standard 4-hour ^51Cr release assay using IL-2 (1000 U/mL) treated NK cells. Pre-treatment of NK cells with IL-2 (1000 U/mL) were carried out for 18-24 h. Percent cytotoxicity was determined at different effector to target ratio and the lytic units 30/10^6 cells were determined using inverse number of NK cells required to lyse 30% of the tumor cells×100 (FIG. 25C).
A general note: A flow cytometer gives signals particle by particle.

The test system of another data set is MP2. As to the kind of experiment: Resistance to NK cell mediated cytotoxicity after cytokine treatment, 4-hour 51Cr release assay. As to conditions: rhTNF-α 20 ng/mL or rhIFN-γ 200 U/mL; IL-2 treated NK cells. The procedure: as §4
Where [4] appears, read: stem-like/poorly differentiated OSCSCs, cisplatin 10-80 μg/ml for 18 h in FIG. 1F.

Entries after “also recorded” stand apart in the source; their conditions may differ.

Turning to `CC(=O)O[C@H]1C(=O)[C@@]2(C)[C@H]([C@H](OC(=O)c3ccccc3)[C@]3(O)C[C@H](OC(=O)[C@H](O)[C@@H](NC(=O)c4ccccc4)c4ccccc4)C(C)=C1C3(C)C)[C@]1(OC(C)=O)CO[C@@H]1C[C@@H]2O` [paclitaxel], the cell death result in data set [1] is “higher induction of cell death; also recorded: killed”; in the data set with MP2 tumors [2], “resistant”; in the data set with Capan tumors (well-differentiated Capan, compared with MP2, 18-20 hours), “much higher levels of cell death; also recorded: higher induction of cell death”; with PL12 tumors, “much higher levels of cell death; also recorded: higher induction of cell death; also recorded: killed”; in the data set with OSCCs, “higher cell death”; in the data set on OSCSCs (NK-differentiated OSCSCs), “higher cell death”. Also, the cell death entry with OSCSCs (setting [4]) was “minimal effects”.
Consider `CC(=O)N[C@@H](CS)C(=O)O` [NAC, N-Acetyl Cysteine], for which the “paclitaxel mediated cell death on addition of NAC” value is “increased cell death; also recorded: increased paclitaxel mediated death” in data set [1] (NAC (20 nM) 24 h, followed by paclitaxel 10 nM to 600 nM); “increased paclitaxel mediated cell death” with MP2 tumors [2] (NAC (20 nM) 24 h, followed by paclitaxel); “increased paclitaxel mediated cell death” with Capan tumors (NAC then paclitaxel); “increased paclitaxel mediated cell death” in the data set on PL12 tumors (NAC then paclitaxel).
Turning to `N.N.[Cl][Pt][Cl]` [CDDP, cis-dichlorodiammineplatinum], the cell death entry is reported as “killed” in data set [1]; “resistant” with MP2 tumors [2]; “killed” in the data set with PL12 tumors; “higher cell death” in the data set with OSCCs; “higher cell death” in the data set with OSCSCs (NK-differentiated OSCSCs); “not susceptible to CDDP induced cell death; also recorded: minimal effects” in the data set on OSCSCs (setting [4]).
With “rhIFN-γ: recombinant human IFN-γ from Biolegend”, in the data set on MP2 tumors [3], the “surface expression of B7H1” value is “able to upregulate B7H1”. In addition, in the data set on MP2 tumors [3] (rhTNF-α 20 ng/mL), the “surface expression of CD44, CD54, MHC-class I and B7H1” value is “increase surface expression of CD54 and MHC-class I”.

B1: rhIFN-γ: recombinant human IFN-γ from Biolegend (protein, UniProt P01579 24-161, looked up)
Interferon gamma: QDPYVKEAENLKKYFNAGHSDVADNGTLFLGILKNWKEESDRKIMQSQIVSFYFKLFKNFKDDQSIQKSVETIKEDMNVKFFNSNKKKRDDFEKLTNYSVTDLNVQRKAIHELIQVMAELSPAAKTGKRKRSQMLFRG
Consider B1, for which, in the data set with MP2, the “resistance against NK cell mediated cytotoxicity” value is on record as “significant resistance”.
